In US20250041248A1, “ALZ-801 FOR USE IN TREATING ALZHEIMER'S DISEASE” (Alzheon, Inc., priority 2021, published 2025):
Entries after “also recorded” stand apart in the source; their conditions may differ.

What was measured:
[1] = Steady-state plasma tramiprosate pharmacokinetics, expanded access subject, TID and QID; format: in vivo, human; conditions: BID vs TID vs QID, 265 mg per dose
Description: The steady state pharmacokinetics of the TID and QID dosing regimen in the patient has been assayed for area under the curve (AUC) and maximum concentration (Cmax) of plasma tramiprosate (the active form of ALZ-801) and compared to BID dosing values in a population of patients in a Phase 2 human clinical trial of ALZ-801. Once the patient reaches steady state on a particular dosing regimen (any time after day 7 of a particular dosing regimen), a blood sample was collected just prior to the administration of a dose of AZL-801 and then again at 1, 2 and 4 hours post-administration of that dose. Plasma was isolated from the sample by centrifugation and the plasma samples were frozen and shipped to a bioanalytical lab for determination of tramiprosate concentrations (active moiety of ALZ-801) and calculation of AUC and Cmax. The values obtained from the plasma were then used to calculate projected brain AUC.

[2] = tested on: subject with major neurocognitive disorder of the Alzheimer type, APOE4 homozygous; assay: Compassionate use study (Expanded Access IND), clinical response and tolerability; format: in vivo, human; conditions: n=1
Procedure: A subject who received a diagnosis of major neurocognitive disorder of the Alzheimer type was treated with ALZ-801 as part of a compassionate use study. The subject was a APOE4 homozygous and had received standard cognitive enhancing medications and was enrolled in a trial of an amyloid immunotherapy agent, but without benefit, and had no treatment options.
The subject was orally administered ALZ-801 at a dose of 265 mg BID for approximately 14 months (61 weeks, 2 days). […] For example, their motor skills improved as they made efforts to brush their teeth, get dressed, and bathe […]. They also were able to hold a phone to their […] and was walking and eating better. They were not able or willing to do the above prior to treatment with 265 mg BID ALZ-801. Further, their mood was noticeably more cheerful and content, and their verbal communication advanced. However, by the later end of the first 12-months of treatment, the improvement in the subject's symptoms plateaued and there was a decline in their cognitive status. They became apathetic, less verbal, and could no longer follow instructions.
At 62 weeks, 6 days of treatment, the dosage of ALZ-801 was increased from 265 mg BID to 265 mg TID. Remarkably, their plateau and decline in cognition ended upon commencement of the 265 mg TID dosage regimen. They were more talkative, happier, and not only completed the tasks they accomplished while on 265 mg BID ALZ-801, but improved beyond that. They understand the context of conversation and behave in a more “normal” or “natural” manner. […] A similar plateau or decline in cognitive status as observed with an ALZ-801 dosage of 265 mg BID began to manifest approximately 12 months after the beginning of the 265 mg TID ALZ-801 dosing. The subject remained on 265 mg TID ALZ-801 for approximately three more months (15 months total) until their dosage was increased to 265 mg QID (four time a day) ALZ-801, which they have maintained for the past seven months. […] Their caretakers have noted that the patient's disposition and alertness has improved, they are more responsive, more cooperative and has improved interaction with the caretakers.

CC(C)[C@H](N)C(=O)NCCCS(=O)(=O)O [ALZ-801, valyl-3-amino-1-propanesulfonic acid]
dose proportionality of plasma AUC and Cmax (tramiprosate) [1]: dose proportional increases in plasma AUC and Cmax | duration of improvement and stabilization before plateau/decline ([2]; oral 265 mg BID): about 58 weeks | tolerability / side effects ([2]; oral 265 mg QID): well-tolerated with no associated nausea or noticeable side effects; also recorded: well tolerated | time to plateau or decline in cognitive status after start of dosing ([2]; oral 265 mg TID): approximately 12 months | tolerability / side effects ([2]; oral 265 mg TID): without out noticeable side effects; also recorded: well-tolerated
